Data published in US10738041B2, “Ferroportin inhibitors” (Vifor (International) AG, priority 2015, dated 2020).
One block for each compound: values may come before it.

Biological target: T1, ferroportin (Fpn) (Mus musculus, UniProt Q9JHI9)
T1 construct: host or cells: J774 mouse macrophage cell line, Fe(III)-NTA induced
T1 sequence (Q9JHI9 1-570): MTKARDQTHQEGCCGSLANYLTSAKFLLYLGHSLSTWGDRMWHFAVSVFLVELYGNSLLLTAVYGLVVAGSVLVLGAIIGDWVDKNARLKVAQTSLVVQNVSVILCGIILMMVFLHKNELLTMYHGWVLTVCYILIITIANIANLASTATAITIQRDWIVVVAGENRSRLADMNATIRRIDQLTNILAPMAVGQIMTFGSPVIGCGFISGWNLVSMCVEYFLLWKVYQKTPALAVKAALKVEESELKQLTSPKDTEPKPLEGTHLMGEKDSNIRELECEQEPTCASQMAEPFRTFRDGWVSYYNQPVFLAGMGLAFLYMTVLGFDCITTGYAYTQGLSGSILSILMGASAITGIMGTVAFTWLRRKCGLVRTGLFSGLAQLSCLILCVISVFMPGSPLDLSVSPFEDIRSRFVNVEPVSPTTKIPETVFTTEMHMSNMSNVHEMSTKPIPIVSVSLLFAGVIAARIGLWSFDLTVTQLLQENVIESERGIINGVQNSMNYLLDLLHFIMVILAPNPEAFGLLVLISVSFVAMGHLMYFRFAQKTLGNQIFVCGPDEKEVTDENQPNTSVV
Test: Hepcidin Internalization Assay (J774)
Format: cell-based
Conditions: average of multiple measurements; inhibition of TMR-hepcidin (25 nM) internalization into J774 cells; read-out: J774 IC50
From the text: This cellular assay allows quantification of the binding of hepcidin to ferroportin (Fpn) through microscopic detection of internalization of a fluorescently labeled hepcidin into J774 cells. […] Binding of hepcidin to Fpn triggers internalization and degradation of both hepcidin and Fpn. However, the TMR (6-carboxytetramethylrhodamine) fluorophore attached to hepcidin remains associated with the cell after degradation of the hepcidin peptide backbone. Therefore, microscopic detection of ceH associated TMR fluorescence is a measure of hepcidin binding to Fpn and internalization of hepcidin and Fpn. If TMR-hepcidin is prevented from binding to Fpn, cellular TMR fluorescence remains low (Dürrenberger et al, 2013). The effect of small molecular weight Fpn inhibitor compounds in this assay was evaluated in vitro as described below.
J774 cells, harvested from ca. 80% confluent cultures, were plated at 8×10^5 cells/ml in complete medium (DMEM, 10% FBS, 1% Penicillin-Streptomycin) containing 200 μM Fe(III)NTA (nitrilotriacetic acid), 100 μl per well of 96 well MicroClear plates (Greiner; Cat. 655090) and grown at 37° C. with 5% CO2. After overnight incubation, cells were washed 3 times with pre-warmed DMEM w/o phenol red, 30 μl/well of DMEM w/o phenol red was added after the final wash and 10 μl/well of dilution series of test compounds were added in triplicates. […] Cells were incubated in a total volume of 50 μl at 37° C. with 5% CO2 for 2 hours, then Hoechst 33342 dye was added to a final concentration of 0.5 μg/ml to stain nuclei and further incubated for 10 min. at 37° C. with 5% CO2. Cells were washed 3 times with PBS and fixed in 100 μl of 4% paraformaldehyde in PBS for 15 min. at room temperature. After removal of the paraformaldehyde solution, cells were washed 3 times with PBS leaving 100 μl per well and the plates were sealed with foil plate seal. TMR (530-550 nm excitation/575-625 nm emission/400 ms exposure time) and Hoechst 33342 (360-370 nm excitation/420-460 nm emission/10 ms exposure time) fluorescence images were acquired using a ScanR plate imager (Olympus) with a 20× high NA objective. Four pictures were acquired per well and fluorescence channel covering ca. 1500 cells per well. The acquired image data was analysed with the ScanR image analysis software. Image analysis included detection of nuclei (Hoechst 33342 fluorescence), identification of cell-associated regions, application of a virtual channel and thresholding for rolling-ball-type background reduction, followed by application of the Sum(Mean) algorithm to measure the TMR fluorescence associated with cells as a quantitative measure for internalized TMR-hepcidin. IC50 values were calculated with the Sum(Mean) raw data using “log(inhibitor) vs. response” curve fitting of Prism 5 software (GraphPad Software Inc., version 5.02).

- IC50: 42900 nM
SMILES: O=C(NCc1ccccc1)c1csc(CCNC(=O)c2ncc[nH]2)n1 [Example 8]

SMILES: O=C(NCc1ncccc1F)c1nc(C2(O)CN(CCc3nc4ccccc4[nH]3)C2)sc1Cl [Example 211]
- IC50: 747 nM

- IC50: 8700 nM
SMILES: O=C(c1csc(CCNCc2nc3ccccc3[nH]2)n1)N1CCOCC1 [Example 18]

SMILES: Cc1nn(CCNCc2nc3ccccc3[nH]2)c(C)c1C(=O)NCc1ncccc1F [Example 142]
- IC50: 21600 nM

SMILES: O=C(NCc1ncccc1F)c1csc(CCNCc2nc3ccccc3o2)n1 [Example 115]
- IC50: > 25000 nM

SMILES: O=C(NCc1ccccn1)c1nc(CCN2CCc3nc4ccccc4n3C2)sc1Cl [Example 189]
- IC50: 60 nM

- IC50: 14200 nM
SMILES: O=C(NCc1ccccc1)c1csc(CCNC(=O)c2nc3ccccc3[nH]2)n1 [Example 7]

SMILES: O=C(NCc1ncc(F)cc1F)c1csc(CCNCCc2nc3cc(F)ccc3[nH]2)n1 [Example 123]
- IC50: 170 nM

SMILES: O=C(NCc1ncccc1F)c1coc(CCNCCc2nc3c(F)ccc(Cl)c3[nH]2)n1 [Example 247]
- IC50: 82 nM

SMILES: Cc1sc(CCNCCc2nc3ccccc3[nH]2)nc1C(=O)NCc1ncccc1F [Example 165]
- IC50: 100 nM

SMILES: COc1cccc2[nH]c(CCNCCc3nc(C(=O)NCc4ncccc4F)co3)nc12 [Example 227]
- IC50: 130 nM

SMILES: O=C(NCc1ncccc1F)c1nc(CNCCc2nc3ccccc3[nH]2)cs1 [Example 205]
- IC50: 370 nM

- IC50: 27000 nM
SMILES: O=C(NCc1ncccc1F)c1cnn(C2CCN(CCc3nc4ccccc4[nH]3)CC2)c1 [Example 198]

SMILES: O=C(NCc1ccccn1)c1nc(CCNCCc2nc3ccccc3[nH]2)sc1Cl [Example 184]
- IC50: 63 nM

SMILES: O=C(NCc1cccnn1)c1nc(CCNCCc2nc3ccccc3[nH]2)sc1Cl [Example 183]
- IC50: 131 nM

SMILES: O=C(NC1CCc2cccnc21)c1cnn(CCNCCc2nc3ccccc3[nH]2)c1 (stereo not drawn) [Example 131]
- IC50: 90 nM

- IC50: 15800 nM
SMILES: NC(=O)c1csc(CCNCc2nc3ccccc3[nH]2)n1 [compound 23]

- IC50: 15400 nM
SMILES: CC(=O)N(CCc1nc(C(=O)NCc2ccccc2)cs1)Cc1nccn1C [Example 4]

SMILES: Cn1nc(CNCCc2nc3ccccc3[nH]2)cc1C(=O)NCc1ncccc1F [Example 220]
- IC50: 290 nM

SMILES: O=C(NCc1ncccc1F)c1coc(C2CN(CCc3nc4c(C(F)(F)F)cccc4[nH]3)C2)n1 [Example 273]
- IC50: 228 nM

SMILES: O=C(NCc1ncccc1Cl)c1coc(CCNCCc2nc3ccccc3[nH]2)n1 [Example 173]
- IC50: 6 nM

SMILES: O=C(NCc1ccccn1)c1coc(CCNCCc2nc3c(F)cccc3[nH]2)n1 [Example 236]
- IC50: 150 nM

SMILES: O=C(NCc1ncccc1F)c1nc(C2CN(CCc3nc4ccccc4[nH]3)C2)sc1Cl [Example 209]
- IC50: 379 nM

SMILES: O=C(NCc1ncccc1F)c1cn(CCNCCc2nc3ccccc3[nH]2)nc1C(F)(F)F [Example 162]
- IC50: 297 nM

SMILES: O=C(NCc1ncccc1F)c1coc(CCNCCc2nc3c(F)c(F)ccc3[nH]2)n1 [Example 257]
- IC50: 35 nM

SMILES: CCCCN(CCc1nc2ccccc2[nH]1)CCc1nc(C(=O)NCc2ncccc2F)cs1 [Example 157]
- IC50: 717 nM

SMILES: O=C(NCc1ncccc1F)c1nc(CCNCCc2nc3ccccc3[nH]2)sc1C(F)(F)F [Example 186]
- IC50: 300 nM

SMILES: O=C(NCc1ccccn1)c1cnn(CCNCCc2nc3ccccc3[nH]2)c1 [Example 109]
- IC50: 76 nM

SMILES: Cc1ccc(CNC(=O)c2csc(CCNCCc3nc4ccccc4[nH]3)n2)nn1 [Example 174]
- IC50: 141 nM

SMILES: O=C(NCc1ncccc1F)c1csc(CCN(CCc2nc3ccccc3[nH]2)CC2CC2)n1 [Example 148]
- IC50: 2080 nM

SMILES: O=C(NC1CCc2cccnc21)c1cnn(C2CN(CCc3nc4ccccc4[nH]3)C2)c1 (stereo not drawn) [Example 191]
- IC50: 330 nM

SMILES: O=C(NCc1ncccc1Cl)c1csc(C2CN(CCc3nc4ccccc4[nH]3)C2)n1 [Example 195]
- IC50: 210 nM

SMILES: NCCCN(CCc1nc2ccccc2[nH]1)CCc1nc(C(=O)NCc2ncccc2F)cs1 [Example 163]
- IC50: 828 nM

- IC50: 10400 nM
SMILES: O=C(NCc1ccccc1)c1csc(CCNCc2n[nH]c3ccccc23)n1 [Example 5]

SMILES: O=C(NCc1ncccc1F)c1csc(CCNCc2nc3c(F)cccc3[nH]2)n1 [Example 274]
- IC50: 145 nM

SMILES: O=C(NCc1ncccn1)c1nc(CCNCc2nc3ccccc3[nH]2)sc1Cl [Example 175]
- IC50: 1020 nM

SMILES: O=C(Cc1nc2ccccc2[nH]1)NCCc1nc(C(=O)NCc2ncccc2F)cs1 [Example 113]
- IC50: > 25000 nM

SMILES: O=C(NCc1ncccn1)c1csc(CCNCCc2nc3ccccc3[nH]2)n1 [Example 129]
- IC50: 353 nM

- IC50: 16600 nM
SMILES: O=C(NCc1ccccc1)c1csc(CCNCc2nccs2)n1 [Example 3]

SMILES: O=C(NCc1ccccn1)c1nc(CCNCc2nc3ccccc3[nH]2)sc1Cl [Example 160]
- IC50: 256 nM

SMILES: CC(C)(CNCCc1nc(C(=O)NCc2ncccc2F)cs1)c1nc2ccccc2[nH]1 [Example 199]
- IC50: 780 nM

SMILES: O=C(NCc1ncccc1F)c1cnn(CCNCc2nc3ccccc3[nH]2)c1 [Example 145]
- IC50: 385 nM

SMILES: O=C(NCc1ccccn1)c1coc(C2CN(CCc3nc4c(F)cccc4[nH]3)C2)n1 [Example 258]
- IC50: 152 nM

SMILES: O=C(NCc1ncccc1F)c1cn(CCNCc2nc3ccccc3[nH]2)nc1C(F)(F)F [Example 156]
- IC50: 2460 nM

- IC50: 5000 nM
SMILES: O=C(NCc1ncccc1F)[C@@H]1CCN(CCNCc2nc3ccccc3[nH]2)C1 [compound 202]

SMILES: O=C(NCc1ncccc1F)c1coc(CNCCc2nc3ccccc3[nH]2)n1 [Example 206]
- IC50: 180 nM

SMILES: O=C(NCc1ncccc1F)c1coc(CCNCCc2nc3c(F)ccc(F)c3[nH]2)n1 [Example 251]
- IC50: 62 nM

SMILES: Cc1sc(CCNCCc2nc3ccccc3[nH]2)nc1C(=O)NCc1ncccn1 [Example 188]
- IC50: 1160 nM

SMILES: O=C(NCc1cccnn1)c1coc(C2CN(CCc3nc4ccccc4[nH]3)C2)n1 [Example 244]
- IC50: 90 nM

SMILES: O=C(NCc1ncccc1F)c1coc(CCNCc2nc3c(F)cccc3[nH]2)n1 [Example 253]
- IC50: 226 nM

SMILES: O=C(NCc1ncccc1F)c1csc(CCNCc2nc3ccc(F)cc3[nH]2)n1 [Example 114]
- IC50: 118 nM

SMILES: Cc1cnc(CNC(=O)c2csc(CCNCCc3nc4ccccc4[nH]3)n2)nc1 [Example 155]
- IC50: 347 nM

SMILES: O=C(NCc1ncccc1F)c1nc(CCNCc2nc3ccccc3[nH]2)sc1C(F)(F)F [Example 176]
- IC50: 957 nM

SMILES: O=C(NCc1ncccc1F)c1coc(CCNCCc2nc3c(C(F)(F)F)cccc3[nH]2)n1 [Example 256]
- IC50: 81 nM

SMILES: CC(C)(Cc1nc(C(=O)NCc2ncccc2F)cs1)NCc1nc2ccccc2[nH]1 [Example 231]
- IC50: 5200 nM

SMILES: Cc1cnc(CNC(=O)c2nc(CCNCCc3nc4ccccc4[nH]3)sc2Cl)nc1 [Example 182]
- IC50: 989 nM

SMILES: Cc1sc(CCNCc2nc3ccccc3[nH]2)nc1C(=O)NCc1ncccc1F [Example 164]
- IC50: 343 nM
